Data from patent US12448388B2, “PRMT5 inhibitors and uses thereof” (Gilead Sciences, Inc., priority 2023, dated 2025).

These molecules were tested on HCT116 MTAP-deleted cell lines (assay: Cell viability assay (CellTiter-Glo, 7 days), HCT116 MTAP-deleted). Conditions: Homo sapiens, HCT-116; cell viability assay, HCT116 MTAP-deleted; class symbols; read-out: CC50.
Type: cell-based
Procedure, shortened: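 CC50 values come from 7-day CellTiter-Glo viability measurements on cells exposed to a dose range of PRMT5 inhibitors dispensed from DMSO stocks.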

Compound | CC50 [nM]
Cc1ncc2c(N)nc3cnc(C(=O)N4C[C@@H](C)O[C@@H]5Cc6cc(Cl)ccc6[C@@H]54)cc3n12 (single isomer, unassigned) [Ff-463] | 100 to 1000
CN(C(=O)c1cc2c(cc1F)nc(N)c1cncn12)[C@@H]1COc2cc(C#CC(C)(C)F)ccc21 [Ff-447, 4-amino-7-fluoro-N-[(3S)-6-(3-fluoro-3-methyl-but-1-ynyl)-2,3-dihydrobenzofuran-3-yl]-N-methyl-imidazo[1,5-a]quinoxaline-8-carboxamide] | < 100
CN(C(=O)c1cc2c(cc1F)nc(N)c1cncn12)C1COc2cc3ccccc3cc21 (stereo not shown) [Ff-600, 4-amino-N-(2,3-dihydronaphtho[2,3-b]furan-3-yl)-7-fluoro-N-methylimidazo[1,5-a]quinoxaline-8-carboxamide] | < 100
Cc1ncn2c1c(N)nc1ccc(C(=O)N3CCC[C@@H]4Oc5cc(OC(F)(F)F)ccc5[C@@H]43)cc12 (single isomer, unassigned) [Ff-400] | < 100
Cc1ncn2c1c(N)nc1cnc(C(=O)N3CCC[C@@H]4Oc5cc(OC(F)(F)F)ccc5[C@@H]43)cc12 [Fg-30, (4-amino-3-methylimidazo[1,5-a]pyrido[3,4-e]pyrazin-8-yl)((4aS,9bS)-7-(trifluoromethoxy)-3,4,4a,9b-tetrahydrobenzofuro[3,2-b]pyridin-1(2H)-yl)methanone] | < 100
Cc1ncn2c1c(N)nc1cnc(C(=O)N(C)[C@@H]3COc4cc(C56CC(C5)C6)ccc43)cc12 [Ff-452, (S)-4-amino-N-(6-(bicyclo[1.1.1]pentan-1-yl)-2,3-dihydrobenzofuran-3-yl)-N,3-dimethylimidazo[1,5-a]pyrido[3,4-e]pyrazine-8-carboxamide] | < 100
Cc1ncn2c1c(N)nc1cnc(C(=O)N3C[C@H](C)C[C@@H]4CCc5cc(C(F)(F)F)ccc5[C@@H]43)cc12 (racemic) [Ff-462, Rac-(4-amino-3-methylimidazo[1,5-a]pyrido[3,4-e]pyrazin-8-yl)((3R,4aS,10bR)-3-methyl-8-(trifluoromethyl)-3,4,4a,5,6,10b-hexahydrobenzo[h]quinolin-1(2H)-yl)methanone] | 100 to 1000
Cc1ncn2c1c(N)nc1cc(Cl)c(C(=O)N3CCC[C@@H]4Oc5cc(C(F)(F)F)ncc5[C@@H]43)cc12 [Fg-19, (4-amino-7-chloro-3-methylimidazo[1,5-a]quinoxalin-8-yl)((4aS,9bS)-7-(trifluoromethyl)-3,4,4a,9b-tetrahydrofuro[3,2-b:4,5-c′]dipyridin-1(2H)-yl)methanone] | < 100
C[C@@H]1CC[C@@H]2Oc3cc(OC(F)(F)F)ccc3[C@@H]2N1C(=O)c1cc2c(cc1F)nc(N)c1cncn12 (single isomer, unassigned) [Ff-491] | < 100
CN(C(=O)c1cc2c(cc1C1CC1)nc(N)c1cncn12)[C@@H]1COc2cc(C(F)(F)F)ccc21 [Ff-614, (S)-4-amino-7-cyclopropyl-N-methyl-N-(6-(trifluoromethyl)-2,3-dihydrobenzofuran-3-yl)imidazo[1,5-a]quinoxaline-8-carboxamide] | < 100

Same assay, conditions: Homo sapiens, HCT-116; cell viability, HCT116 MTAP-deleted; class symbols; read-out: CC50

Compound | CC50 [nM]
CN(C(=O)c1cc2c(cc1F)nc(N)c1cncn12)[C@@H]1COc2cc(-c3cnc(C(F)F)s3)ccc21 [Ff-233, (S)-4-amino-N-(6-(2-(difluoromethyl)thiazol-5-yl)-2,3-dihydrobenzofuran-3-yl)-7-fluoro-N-methylimidazo[1,5-a]quinoxaline-8-carboxamide] | < 100
CN(C(=O)c1cc2c(cc1F)nc(N)c1cncn12)C1COc2c1ccc(C(F)(F)F)c2Cl (stereo not shown) [Ff-158, 4-amino-N-(7-chloro-6-(trifluoromethyl)-2,3-dihydrobenzofuran-3-yl)-7-fluoro-N-methylimidazo[1,5-a]quinoxaline-8-carboxamide] | < 100
CN(C(=O)c1cc2c(cc1F)nc(N)c1cncn12)[C@H]1COCc2nc(C(F)(F)F)ccc21 [Ff-282, (R)-4-amino-7-fluoro-N-methyl-N-(2-(trifluoromethyl)-5,8-dihydro-6H-pyrano[3,4-b]pyridin-5-yl)imidazo[1,5-a]quinoxaline-8-carboxamide] | 100 to 1000
Nc1nc2ccc(C(=O)N(Cc3ccc(OC(F)F)cc3F)C34CC(C3)C4)cc2n2cncc12 [Ff-264, 4-amino-N-(bicyclo[1.1.1]pentan-1-yl)-N-(4-(difluoromethoxy)-2-fluorobenzyl)imidazo[1,5-a]quinoxaline-8-carboxamide] | 100 to 1000
Nc1nc2cc(F)c(C(=O)N3CC[C@H]4C[C@@H]3c3ccc(C(F)(F)F)cc3O4)cc2n2cncc12 [Ff-365, (4-amino-7-fluoroimidazo[1,5-a]quinoxalin-8-yl)((2S,6R)-9-(trifluoromethyl)-3,4-dihydro-2H-2,6-methanobenzo[b][1,5]oxazocin-5(6H)-yl)methanone] | < 100
Nc1nc2cc(F)c(C(=O)N3CCO[C@@H]4Cc5ccccc5[C@@H]43)cc2n2cncc12 (racemic) [Ff-36, Racemic(4-amino-7-fluoroimidazo[1,5-a]quinoxalin-8-yl)((4aS,9aR)-2,3,9,9a-tetrahydroindeno[2,1-b][1,4]oxazin-4(4aH)-yl)methanone] | 100 to 1000
Nc1nc2cc(F)c(C(=O)N3CCCC4OCc5cc(C(F)(F)F)ccc5C43)cc2n2cncc12 (stereo not shown) [Ff-43, (4-amino-7-fluoroimidazo[1,5-a]quinoxalin-8-yl)(8-(trifluoromethyl)-2,3,4,4a,6,10b-hexahydro-1H-isochromeno[4,3-b]pyridin-1-yl)methanone] | < 100
CN(C(=O)c1cc2c(cc1F)nc(N)c1cncn12)[C@@H]1COc2cc(-c3ccc(C(F)(F)F)nc3)ccc21 [Ff-229, (S)-4-amino-7-fluoro-N-methyl-N-(6-(6-(trifluoromethyl)pyridin-3-yl)-2,3-dihydrobenzofuran-3-yl)imidazo[1,5-a]quinoxaline-8-carboxamide] | < 100
Nc1nc2cc(F)c(C(=O)N3CC[C@H]4C[C@@H]3c3ccc(C(F)(F)F)nc34)cc2n2cncc12 (racemic) [Ff-90, Rac-(4-amino-7-fluoroimidazo[1,5-a]quinoxalin-8-yl)((5R,9S)-2-(trifluoromethyl)-5,7,8,9-tetrahydro-6H-5,9-methanopyrido[3,2-c]azepin-6-yl)methanone] | 100 to 1000
Nc1nc2cc(F)c(C(=O)N3CCO[C@@H]4Cc5cc(C(F)(F)F)ccc5[C@@H]43)cc2n2cncc12 (racemic) [Ff-34, Racemic (4-amino-7-fluoroimidazo[1,5-a]quinoxalin-8-yl)((4aS,9aR)-7-(trifluoromethyl)-2,3,9,9a-tetrahydroindeno[2,1-b][1,4]oxazin-4(4aH)-yl)methanone] | < 100
C[C@@H]1CN(C(=O)c2cc3c(cc2F)nc(N)c2cncn23)[C@@H](c2ccc(C(F)(F)F)cn2)CO1 [Ff-129, (4-amino-7-fluoroimidazo[1,5-a]quinoxalin-8-yl)((2R,5S)-2-methyl-5-(5-(trifluoromethyl)pyridin-2-yl)morpholino)methanone] | < 100
CC1COC2Cc3cc(C(F)(F)F)ccc3C2N1C(=O)c1cc2c(cc1F)nc(N)c1cncn12 (racemic) [Ff-85, (4-amino-7-fluoroimidazo[1,5-a]quinoxalin-8-yl)(3-methyl-7-(trifluoromethyl)-2,3,9,9a-tetrahydroindeno[2,1-b][1,4]oxazin-4(4aH)-yl)methanone] | < 100
